Among the data in patent US11878978B1, “Pyrrolo[2,3-c]quinoline compounds as CK2 inhibitors” (KING FAISAL UNIVERSITY, priority 2023, dated 2024) are IC50 values, retold here.

One assay concerns MCF7 (breast). Nature of the assay: In vitro cytotoxic activity assay (MTT), MCF7. The settings on record: Homo sapiens; MCF7 (breast) cells, exposed for 96 hours; read-out: IC50, concentration of compound eliciting a 50% inhibition of cell proliferation. The assay is classed as cell-based. How it is done:
(§1) Compounds 1-12 were screened for their in vitro cytotoxic activity utilizing a 3-(4,5-dimethyl-thiazol-2-yl)-2,5-diphenyltetrazolium bromide (MTT) assay against selected cancer human cell lines consisting of PC3 (prostate), HCT116 (colon), A375 (melanoma), H1299 (lung), MIAPaCa-2 (pancreas), HL60 (leukemia), MCF7 (breast), MDA-MB-231 (breast) (T. Mosmann, J. Immunol. Meth., 1983, 65, 55-63). The cells were cultured at 37° C. in RMPI1640 medium supplemented with 10% fetal bovine serum, 50 IU/mL penicillin, and 50 μg/mL streptomycin in a 5% CO2 incubator. All cells were sub-cultured 3 times/week by trypsinisation. Viable cells were seeded and allowed to adhere for 12 h before a test drug was added in 96-well plates at an initial density of 1.0×10^5 cells/mL. Tumour cell lines were separately exposed to various concentrations of the tested compounds followed by incubation at a temperature of 37° C. during 96 h inside a medium of fresh RMPI 1640. Cells were subsequently incubated at 37° C. using MTT at 0.5 mg/mL during 4 h. After removal of supernatant, formazan crystals were dissolved in isopropanol and the optical density was measured at 570 nm. CX-4945 was used as a positive control.

A further assay has as its system H1299 (lung). Nature of the assay: In vitro cytotoxic activity assay (MTT), H1299. The assay is classed as cell-based. The settings on record: Homo sapiens, NCI-H1299; H1299 (lung) cells, exposed for 96 hours; read-out: IC50, concentration of compound eliciting a 50% inhibition of cell proliferation. The procedure: as §1
Another assay concerns MDA-MB-231 (breast). Nature of the assay: In vitro cytotoxic activity assay (MTT), MDA-MB-231. As to conditions: Homo sapiens; MDA-MB-231 (breast) cells, exposed for 96 hours; read-out: IC50, concentration of compound eliciting a 50% inhibition of cell proliferation. The assay is classed as cell-based. The procedure: as §1
The target of the next assay is T1, recombinant human CK2 (Homo sapiens, UniProt P68400).
T1 construct: purchased Millipore
T1 sequence (P68400 whole entry): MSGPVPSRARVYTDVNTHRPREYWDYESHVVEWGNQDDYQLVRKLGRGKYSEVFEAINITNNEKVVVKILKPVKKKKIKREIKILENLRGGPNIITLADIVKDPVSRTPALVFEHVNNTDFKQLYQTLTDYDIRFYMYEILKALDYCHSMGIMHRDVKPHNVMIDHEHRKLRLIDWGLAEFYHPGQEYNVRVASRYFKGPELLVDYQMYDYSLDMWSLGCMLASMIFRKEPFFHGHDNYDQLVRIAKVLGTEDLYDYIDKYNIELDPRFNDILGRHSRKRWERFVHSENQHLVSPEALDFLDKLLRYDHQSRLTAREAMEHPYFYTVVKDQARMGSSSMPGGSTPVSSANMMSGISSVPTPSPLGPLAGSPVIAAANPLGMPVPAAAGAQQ
T1 sequence (P67870 whole entry partner): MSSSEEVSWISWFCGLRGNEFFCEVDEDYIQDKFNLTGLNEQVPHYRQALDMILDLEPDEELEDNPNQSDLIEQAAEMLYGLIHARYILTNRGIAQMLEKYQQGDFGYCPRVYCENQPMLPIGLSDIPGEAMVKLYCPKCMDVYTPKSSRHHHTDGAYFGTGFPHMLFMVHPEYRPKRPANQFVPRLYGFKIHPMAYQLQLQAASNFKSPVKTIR
Nature of the assay: CK2 Kinase Assay (33P-ATP, substrate peptide RRRDDDSDDD). As to conditions: final ATP concentration 15 μM, 10 min at 30° C., eight concentrations; read-out: protein kinase CK2 IC50. In kind it is biochemical. The procedure: CK2 Kinase Assay was conducted using the protocol as described in Pierre F. et al; J. Med. Chem. 2011, 54, 635-654. The tested compounds in aqueous solution were added at a volume of 10 μL to a reaction mixture comprising 10 μL of assay dilution buffer (ADB; 20 mM MOPS, pH 7.2, 25 mM β-glycerol phosphate, 5 mM EGTA, 1 mM sodium orthovanadate, and 1 mM dithiothreitol), 10 μL of substrate peptide (RRRDDDSDDD, dissolved in ADB at a concentration of 1 mM), 10 μL of recombinant human CK2 (RROP-holoenzyme, 25 ng dissolved in ADB; Millipore). Reactions were initiated by the addition of 10 μL of ATP solution (90% 75 mMMgCl2, 75 μM ATP (final ATP concentration:15 μM) dissolved in ADB; 10% [γ-33P] ATP (stock 1 mCi/100 μL; 3000 Ci/mmol (Perkin-Elmer) and maintained for 10 min at 30° C. The reactions were quenched with 100 μL of 0.75% phosphoric acid and then transferred to and filtered through a phosphor cellulose filter plate (Millipore). After washing each well five times with 0.75% phosphoric acid, the plate was dried under vacuum for 5 min and, following the addition of 15 μL of scintillation fluid to each well, the residual radioactivity was measured using a Wallac luminescence counter. The IC50 values were derived from eight concentrations of test inhibitors.

For a further assay, the system named is HCT116 (colon). Nature of the assay: In vitro cytotoxic activity assay (MTT), HCT116. The settings on record: Homo sapiens, HCT-116; HCT116 (colon) cells, exposed for 96 hours; read-out: IC50, concentration of compound eliciting a 50% inhibition of cell proliferation. In kind it is cell-based. How it is done:
as §1

The next assay concerns PC3 (prostate). Nature of the assay: In vitro cytotoxic activity assay (MTT), PC3. In kind it is cell-based. As to conditions: Homo sapiens, Prostate cell; PC3 (prostate) cells, exposed for 96 hours; read-out: IC50, concentration of compound eliciting a 50% inhibition of cell proliferation. The procedure:
as §1

A further assay deals with MIAPaCa-2 (pancreas). Nature of the assay: In vitro cytotoxic activity assay (MTT), MIAPaCa-2. In kind it is cell-based. As to conditions: Homo sapiens, MIA PaCa-2; MIAPaCa-2 (pancreas) cells, exposed for 96 hours; read-out: IC50, concentration of compound eliciting a 50% inhibition of cell proliferation. How it is done: as §1
Another assay concerns HL60 (leukemia). Nature of the assay: In vitro cytotoxic activity assay (MTT), HL60. The assay is classed as cell-based. The settings on record: Homo sapiens, HL-60; HL60 (leukemia) cells, exposed for 96 hours; read-out: IC50, concentration of compound eliciting a 50% inhibition of cell proliferation. The procedure:
as §1

The subject of the next assay is A375 (melanoma). Nature of the assay: In vitro cytotoxic activity assay (MTT), A375. The assay is classed as cell-based. As to conditions: Homo sapiens, A-375; A375 (melanoma) cells, exposed for 96 hours; read-out: IC50, concentration of compound eliciting a 50% inhibition of cell proliferation. The procedure:
as §1

Consider `O=C(O)c1ccc2c(c1)nc(Nc1cccc(Cl)c1)c1[nH]cc(C(=O)O)c12` [Compound 1, 4-((3-chlorophenyl)amino)-3H-pyrrolo[2,3-c]quinoline-1,7-dicarboxylic acid], for which the IC50 came to 6200 nM with MCF7 (breast); 1900 nM in the assay with H1299 (lung); 4600 nM in the assay with MDA-MB-231 (breast); 35 nM on recombinant human CK2; 1700 nM with HCT116 (colon); 1300 nM in the assay on PC3 (prostate). Further, the IC50 with MIAPaCa-2 (pancreas) was 1400 nM; in the assay on HL60 (leukemia), 3100 nM; with A375 (melanoma), 2200 nM.
